# Laboratory results taken from article PMC7297817, “Pharmacological Characterization of a Betaine/GABA Transporter 1 (BGT1) Inhibitor Displaying an Unusual Biphasic Inhibition Profile and Anti-seizure Effects” (Neurochemical Research, 2020).
# “Also recorded” adds a separate entry of the source. Where two headings read alike, the source gives them in different places.
# Tests used:
# [1] = target: T1, hGAT1 (Homo sapiens, UniProt P30531); experiment: [3H]GABA uptake at hGAT1 stably expressed in CHO cells; assay type: cell-based; conditions: for IC50: CHO
# T1 construct: expressed in transfected cells
# Experimental: (§1) The HEK-293 and Flp-In CHO cell lines stably expressing mouse (m) and human (h) GATs, respectively, have been described previously and were cultured accordingly. The tsA201 cell line was used for transient expression while the MDCK II cell line express BGT1 endogenously. Both cell lines were cultured as described. tsA201 cells were transfected with DNA constructs (8 μg per 10 cm dish if not otherwise mentioned) using 40 μL PolyFect transfection reagent according to the manufacturer’s protocol (Qiagen, Venlo, Netherlands). The DNA constructs encoding hBGT1, hGAT1-3 [36], the mutated constructs hBGT1 Q299 and hGAT3 L314Q described previously, and hBGT Y453A were synthesized and sequence validated by Genscript (NJ, USA).
# (§2) The [^3H]GABA competition uptake assay was performed as previously described. A minor change, however, was introduced for uptake in MDCK II cells, in which 100 nM [^3H]GABA was used for a 15 min incubation period at 37 °C instead of 30 nM [^3H]GABA and 3 min incubation. Studies related to the inhibition curves with GABA and BPDBA at hBGT1 were obtained both with and without the presence of 10 μM ATP during the [^3H]GABA uptake assay.
# (§3) The [^3H]GABA uptake data was normalized to the percentage of total uptake in the individual experiments in the presence of the lowest compound concentration or no compound present. Data presented is the pooled data of at least three independent experiments with three technical replicates. Concentration–response curves (CRCs) were fitted with GraphPad Prism (version 8.2.1, Yosemite, GraphPad Software, San Diego, CA, USA) by non-linear regression to the sigmoidal concentration response model: Y=Bottom+(Top-Bottom)/1+10^LogIC50-X∗nH where Top is the Top plateau, Bottom is the Bottom plateau, X is the logarithm of the concentration of the compound, LogIC50 is the concentration giving a response halfway between Top and Bottom,and nH is the Hill slope.
# (§4) The best fit for CRCs obtained with the [^3H]GABA uptake assay was identified by the extra-sum-of-squares F test (for convenience referred to as F test).
# [2] = target: T2, hGAT2 (Homo sapiens, UniProt Q9NSD5); experiment: [3H]GABA uptake at hGAT2 stably expressed in CHO cells; assay type: cell-based
# T2 construct: expressed in transfected cells
# T2 sequence (Q9NSD5 1-602): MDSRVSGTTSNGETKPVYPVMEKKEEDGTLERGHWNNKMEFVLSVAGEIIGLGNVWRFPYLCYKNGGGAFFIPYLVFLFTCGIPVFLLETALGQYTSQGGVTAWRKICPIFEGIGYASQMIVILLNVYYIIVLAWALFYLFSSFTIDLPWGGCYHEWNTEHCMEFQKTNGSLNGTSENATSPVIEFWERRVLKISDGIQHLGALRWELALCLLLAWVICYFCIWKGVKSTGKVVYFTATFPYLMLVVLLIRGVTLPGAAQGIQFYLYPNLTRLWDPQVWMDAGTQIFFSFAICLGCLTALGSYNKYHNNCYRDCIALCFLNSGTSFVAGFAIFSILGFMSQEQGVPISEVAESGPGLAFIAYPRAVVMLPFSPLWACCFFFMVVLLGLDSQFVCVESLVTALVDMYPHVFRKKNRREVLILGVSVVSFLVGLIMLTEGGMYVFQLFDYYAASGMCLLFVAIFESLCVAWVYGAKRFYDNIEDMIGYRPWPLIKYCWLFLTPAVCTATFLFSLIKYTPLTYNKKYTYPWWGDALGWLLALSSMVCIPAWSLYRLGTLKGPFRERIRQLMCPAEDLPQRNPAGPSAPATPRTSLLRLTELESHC
# Experimental: as §1, §2, §3, §4
# [3] = target: T3, hGAT3 L314Q (Homo sapiens, UniProt P48066, L314Q); experiment: [3H]GABA uptake at hGAT3 L314Q mutant transiently expressed in tsA201 cells; assay type: cell-based; conditions: 30 nM [3H]GABA, 3 min
# T3 construct: expressed in transfected cells; host or cells: tsA201 (transient)
# Experimental: as §1, §2
# The [^3H]GABA uptake data was normalized to the percentage of total uptake in the individual experiments in the presence of the lowest compound concentration or no compound present. […]
# [4] = system: mice; experiment: Rotarod test of minimal motor impairment; assay type: in vivo, mouse
# Experimental: The rotarod test was performed just prior to the three seizure tests.
# Probit analysis was used to analyse the efficacy and tolerability results obtained from the dose–response studies and to calculate the median effective (ED50) dose, the median toxic dose (TD50), and the 95% confidence interval.
# [5] = target: T4, D4 (Homo sapiens, UniProt P21917); experiment: NIMH PDSP radioligand binding, D4; conditions: radioligand [3H]N-methylspiperone, n=4
# T4 construct: purchased NIMH Psychoactive Drug Screening Program (PDSP)
# [6] = target: T5, Alpha1D (Homo sapiens, UniProt P25100); experiment: NIMH PDSP radioligand binding, Alpha1D; conditions: radioligand [3H]prazosine, n=4
# T5 construct: purchased NIMH Psychoactive Drug Screening Program (PDSP)
# [7] = system: GABAA rat brain; experiment: NIMH PDSP radioligand binding, GABAA rat brain; conditions: 10 μM; radioligand [3H]muscimol; n=4
# Experimental: IC50 values in μM (Ki μM)^a. The targets in bold were inhibited by >35% at 10 μM.
# [8] = target: T6, NET (Homo sapiens, UniProt P23975); experiment: NIMH PDSP radioligand binding, NET; conditions: radioligand [3H]nisoxetine, n=4
# T6 construct: purchased NIMH Psychoactive Drug Screening Program (PDSP)
# T6 sequence (P23975 whole entry): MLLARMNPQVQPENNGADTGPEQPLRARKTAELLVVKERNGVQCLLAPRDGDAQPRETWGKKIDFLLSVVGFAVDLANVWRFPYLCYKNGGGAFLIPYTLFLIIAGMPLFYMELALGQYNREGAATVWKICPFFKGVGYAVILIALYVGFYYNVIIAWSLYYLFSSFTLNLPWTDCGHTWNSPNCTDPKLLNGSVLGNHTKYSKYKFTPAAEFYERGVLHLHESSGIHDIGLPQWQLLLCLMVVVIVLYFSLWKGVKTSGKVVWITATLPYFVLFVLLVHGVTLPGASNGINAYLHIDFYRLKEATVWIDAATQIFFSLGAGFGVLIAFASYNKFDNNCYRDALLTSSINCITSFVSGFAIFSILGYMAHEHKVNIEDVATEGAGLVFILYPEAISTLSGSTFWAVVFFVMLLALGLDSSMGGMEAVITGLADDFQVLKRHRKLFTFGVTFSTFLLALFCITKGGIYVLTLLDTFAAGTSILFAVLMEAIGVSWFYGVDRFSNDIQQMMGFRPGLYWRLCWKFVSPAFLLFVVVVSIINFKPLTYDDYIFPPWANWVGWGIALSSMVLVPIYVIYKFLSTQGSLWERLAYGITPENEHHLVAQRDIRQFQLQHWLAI
# T1 sequence (P30531 whole entry): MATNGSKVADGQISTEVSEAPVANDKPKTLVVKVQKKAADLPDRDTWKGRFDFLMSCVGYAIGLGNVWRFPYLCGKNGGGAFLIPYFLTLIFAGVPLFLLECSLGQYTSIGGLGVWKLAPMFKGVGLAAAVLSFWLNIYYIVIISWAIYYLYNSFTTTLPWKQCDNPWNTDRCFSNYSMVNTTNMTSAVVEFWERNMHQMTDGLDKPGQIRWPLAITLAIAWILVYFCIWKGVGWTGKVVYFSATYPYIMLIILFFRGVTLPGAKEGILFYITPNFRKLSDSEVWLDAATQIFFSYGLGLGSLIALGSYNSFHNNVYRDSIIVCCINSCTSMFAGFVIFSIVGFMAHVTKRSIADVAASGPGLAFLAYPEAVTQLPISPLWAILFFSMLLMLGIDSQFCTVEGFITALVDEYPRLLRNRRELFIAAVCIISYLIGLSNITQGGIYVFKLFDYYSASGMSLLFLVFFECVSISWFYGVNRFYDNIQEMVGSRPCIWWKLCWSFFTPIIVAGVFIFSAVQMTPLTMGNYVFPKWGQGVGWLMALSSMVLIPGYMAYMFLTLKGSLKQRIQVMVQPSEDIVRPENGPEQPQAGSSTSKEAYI
# T4 sequence (P21917 whole entry): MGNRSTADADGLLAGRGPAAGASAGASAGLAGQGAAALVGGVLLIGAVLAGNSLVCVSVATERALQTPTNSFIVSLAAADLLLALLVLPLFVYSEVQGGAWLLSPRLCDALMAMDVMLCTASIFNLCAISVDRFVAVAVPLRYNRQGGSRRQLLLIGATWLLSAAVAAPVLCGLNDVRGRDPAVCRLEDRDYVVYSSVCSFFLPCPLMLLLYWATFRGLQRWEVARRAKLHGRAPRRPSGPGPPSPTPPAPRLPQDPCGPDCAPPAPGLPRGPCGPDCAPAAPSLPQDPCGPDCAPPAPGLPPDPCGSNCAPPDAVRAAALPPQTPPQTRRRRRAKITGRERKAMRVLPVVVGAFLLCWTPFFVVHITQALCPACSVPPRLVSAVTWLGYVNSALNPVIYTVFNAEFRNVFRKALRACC
# T3 sequence (P48066 whole entry L314Q): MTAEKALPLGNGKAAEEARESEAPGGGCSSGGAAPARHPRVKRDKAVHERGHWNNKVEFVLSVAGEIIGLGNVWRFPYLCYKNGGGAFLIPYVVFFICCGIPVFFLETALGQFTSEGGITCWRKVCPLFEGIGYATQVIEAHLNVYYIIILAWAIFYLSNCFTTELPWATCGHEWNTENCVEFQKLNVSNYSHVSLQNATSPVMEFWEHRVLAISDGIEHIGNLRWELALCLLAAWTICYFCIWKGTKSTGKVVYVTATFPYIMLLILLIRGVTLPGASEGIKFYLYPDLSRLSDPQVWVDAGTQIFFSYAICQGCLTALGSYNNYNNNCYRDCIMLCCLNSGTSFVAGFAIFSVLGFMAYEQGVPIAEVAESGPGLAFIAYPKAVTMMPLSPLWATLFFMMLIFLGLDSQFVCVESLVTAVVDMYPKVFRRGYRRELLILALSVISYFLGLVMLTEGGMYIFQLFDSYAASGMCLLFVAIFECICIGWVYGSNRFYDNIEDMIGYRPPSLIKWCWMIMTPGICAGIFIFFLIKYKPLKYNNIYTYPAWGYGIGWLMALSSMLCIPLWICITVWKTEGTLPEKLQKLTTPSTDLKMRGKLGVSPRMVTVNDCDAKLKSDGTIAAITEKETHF
# T5 sequence (P25100 whole entry): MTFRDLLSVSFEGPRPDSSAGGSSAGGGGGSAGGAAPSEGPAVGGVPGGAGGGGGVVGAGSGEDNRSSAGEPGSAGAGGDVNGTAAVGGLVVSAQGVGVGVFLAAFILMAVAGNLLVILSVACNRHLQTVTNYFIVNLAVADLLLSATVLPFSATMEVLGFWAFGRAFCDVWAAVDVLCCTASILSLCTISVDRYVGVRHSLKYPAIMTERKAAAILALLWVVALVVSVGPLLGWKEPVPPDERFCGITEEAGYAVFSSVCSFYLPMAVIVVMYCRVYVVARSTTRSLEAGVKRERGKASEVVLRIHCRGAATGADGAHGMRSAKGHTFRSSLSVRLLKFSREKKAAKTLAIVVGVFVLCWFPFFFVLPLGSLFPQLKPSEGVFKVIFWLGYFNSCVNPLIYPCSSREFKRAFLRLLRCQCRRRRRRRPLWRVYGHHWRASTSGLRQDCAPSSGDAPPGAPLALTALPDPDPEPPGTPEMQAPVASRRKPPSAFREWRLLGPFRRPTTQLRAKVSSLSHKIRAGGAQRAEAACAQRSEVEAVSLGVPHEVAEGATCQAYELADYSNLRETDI
smiles,measurement,setting,value
"Cc1ccsc1C(=CCCN(C)[C@H]1CCCC[C@H]1C(=O)O)c1sccc1C [SBV2-114, (1R,2S)-2-((4,4-bis(3-methylthiophen-2-yl)but-3-en-yl)(methyl)amino)cyclohexanecarboxylic acid]",IC50,"[1]; ambiguous fit, N=2",566 µM
same,IC50,"[1]; monophasic fit, N=1",476 µM
same,Fit,[1]; preferred model per experiment,Ambiguous; also recorded: Monophasic
same,IC50,"[2]; ambiguous fit, N=3, CHO, read-out: IC50",525 µM
same,Frac,"[2]; biphasic fit, N=1, CHO",0.06
same,IC50,"[2]; biphasic fit, N=1, CHO, read-out: IC50, high affinity component",3.31 µM
same,Fit,[2]; preferred model per experiment,Biphasic; also recorded: Ambiguous
same,IC50,"[2]; read-out: IC50, low affinity component, biphasic fit, N=1, CHO",550 µM
same,inhibition profile and activity at hGAT3 L314Q,[3],activity in hGAT3 L314Q similar to hBGT1
same,#Motor impairment/#Tested,"[4]; CF-1 mice, prior to MES, 50 mg/kg i.p., 15 min",0/3
same,#Motor impairment/#Tested,"[4]; CF-1 mice, prior to MES, 100 mg/kg i.p., 15 min",0/4
same,#Motor impairment/#Tested,"[4]; CF-1 mice, prior to MES, 125 mg/kg i.p., 15 min",0/7
same,#Motor impairment/#Tested,"[4]; CF-1 mice, prior to MES, 150 mg/kg i.p., 15 min",2/6
same,#Motor impairment/#Tested,"[4]; CF-1 mice, prior to MES, 200 mg/kg i.p., 15 min",3/4
same,#Motor impairment/#Tested,"[4]; CF-1 mice, prior to s.c.PTZ, 150 mg/kg i.p., 30 min",0/8
same,#Motor impairment/#Tested,"[4]; Frings mice, 50 mg/kg i.p., 15 min",0/3
same,#Motor impairment/#Tested,"[4]; Frings mice, 50 mg/kg i.p., 30 min",0/3
same,#Motor impairment/#Tested,"[4]; Frings mice, 50 mg/kg i.p., 60 min",0/3
same,#Motor impairment/#Tested,"[4]; Frings mice, 50 mg/kg i.p., 120 min",0/3
same,#Motor impairment/#Tested,"[4]; Frings mice, 120 mg/kg i.p., 30 min",0/4
same,#Motor impairment/#Tested,"[4]; Frings mice, 120 mg/kg i.p., 60 min",0/4
same,#Motor impairment/#Tested,"[4]; Frings mice, 120 mg/kg i.p., 120 min",0/4
same,#Motor impairment/#Tested,"[4]; Frings mice, 120 mg/kg i.p., 240 min",0/4
same,inhibition at 10 µM,[5],-5.1%
same,inhibition at 10 µM,[6],-4.7%
same,% inhibition,[7],-1.5%
same,inhibition at 10 µM,[8],0.1%
